From US20100112089A1, “PEPTIDE COMPOUND AND USE THEREOF” (Takeda Pharmaceutical Company Limited, priority 2008, published 2010)
Where a name gives a salt, the structure may show the parent alone. Square brackets hold non-standard residues; d marks the D form. Peptide text beside a SMILES is read from it. dPhe(F5) = N[C@H](Cc1c(F)c(F)c(F)c(F)c1F)C(=O)O; dBpa = N[C@H](Cc1ccc(C(=O)c2ccccc2)cc1)C(=O)O; dCha = N[C@H](CC1CCCCC1)C(=O)O

Tests used:
[1] = Pharmacokinetics of CBP501, single agent study; format: in vivo, human; settings: for AUC(0-inf) / Cmax / clearance / half-life: human
From the text: PK was examined in cycle (cy) 1. MTD is the level below that where 2 of 3-6 patients (pts) have DLT during cy 1-2.
In the single agent study, PK was examined in cycle 1. Samples were collected on Days 1 and 15 before the start of the infusion, then at various time points over 24 hr from the start of the infusion, as described below.

MSTO-211H cells = experiment: Water soluble tetrazolium (WST) analysis; format: cell-based; settings: 72 hours
Method: (§1) The medium was replaced 24 hr after treatment, the cells were incubated for an additional 48 hr, and WST-8 solution (Kishida Chemical Co., Osaka, Japan) was added to each well. After 4 hr of incubation at 37° C., the absorbance at 450 nm was measured by microplate reader (Molecular Devices, Calif.).

NCI-H226 cells = experiment: Water soluble tetrazolium (WST) analysis; format: cell-based; settings: 72 hours
Method: as §1

[2] = Tissue distribution of 3H-labelled CBP501, NCI-H226 xenograft model; format: in vivo, SCID mice; settings: NCI-H226 and MSTO-211H xenograft tumors, Table 15
Method: A suspension of NCI-H226 cells was injected subcutaneously into the flanks of six weeks old male severe […] combined immune deficiency (SCID) mice (Charles River Lab., Wilmington, Mass.). The size of tumors was measured three times a week using a caliper. The volumes were calculated using the following formula: volume (cm^3)=[width^2 (mm)×length (mm)]/2000. The relative tumor volume was expressed as the Vt/V0 index, where Vt is the tumor volume on a measured day, and V0 is the volume of the same tumor just before the first treatment. Mean relative tumor sizes with standard error of mean, SEM, were plotted. Body weight was measured three times weekly from the first treatment, and the weight change was expressed as a percentage of the initial weight. Animals were housed in accordance with guidelines from the Association for the Assessment and Accreditation of Laboratory Animal Care International, and the protocols were approved by the institutional animal care committee of CanBas Co., Ltd.
An N-terminal amino acid, p-benzoylphenylalanyl, was ^3H labeled by Daiichi Kagaku Yakuhin Co., Ltd. (Tokyo, Japan).

[3] = in vivo, 0.9 mg/m2, single agent, 0.9 mg/m^2, Day 1, mean, N 4
[4] = in vivo, 0.9 mg/m2, single agent, 0.9 mg/m^2, Day 15, mean, N 3
[5] = in vivo, 7.2 mg/m2, single agent, 7.2 mg/m^2, Day 1, mean, N 3
[6] = in vivo, 7.2 mg/m2, single agent, 7.2 mg/m^2, Day 15, mean, N 3
[7] = in vivo, 9.57 mg/m2, single agent, 9.57 mg/m^2, Day 1, mean, N 3
[8] = in vivo, 9.57 mg/m2, single agent, 9.57 mg/m^2, Day 15, mean, N 2
[9] = in vivo, 12.73 mg/m2, single agent, 12.73 mg/m^2, Day 1, mean, N 3
[10] = in vivo, 12.73 mg/m2, single agent, 12.73 mg/m^2, Day 15, mean, N 3
[11] = in vivo, 16.93 mg/m2, single agent, 16.93 mg/m^2, Day 1, mean, N 2
[12] = in vivo, 16.93 mg/m2, single agent, 16.93 mg/m^2, Day 15, mean, N 3
[13] = in vivo, 22.5 mg/m2, single agent, 22.5 mg/m^2, Day 1, mean, N 7
[14] = in vivo, 22.5 mg/m2, single agent, 22.5 mg/m^2, Day 15, mean, N 5
[15] = in vivo, […]2, single agent, […]^2, Day 1, mean, N 3
[16] = in vivo, […]2, single agent, […]^2, Day 1, mean, N 4

In the case of N=C(N)NCCC[C@@H](NC(=O)[C@@H](CCCNC(=N)N)NC(=O)[C@@H](CCC(N)=O)NC(=O)[C@@H](CCCNC(=N)N)NC(=O)[C@@H](CCCNC(=N)N)NC(=O)[C@@H](CCCNC(=N)N)NC(=O)[C@@H](CC1CCCCC1)NC(=O)[C@@H](Cc1c(F)c(F)c(F)c(F)c1F)NC(=O)[C@@H](CO)NC(=O)[C@@H](Cc1c[nH]c2ccccc12)NC(=O)[C@@H](CO)NC(=O)[C@H](N)Cc1ccc(C(=O)c2ccccc2)cc1)C(=O)O [CBP501, H-(D)p-Benzoylphenylalanyl-(D)seryl-(D)tryptophyl-(D)seryl-(D)pentafluorophenylalanyl-(D)cyclohexylalanyl-(D)arginyl-(D)arginyl-(D)arginyl-(D)glutaminyl-(D)arginyl-(D)arginine acetate salt] (H-[dBpa][dS][dW][dS][dPhe(F5)][dCha][dR][dR][dR][dQ][dR][dR]-OH), the “inter-patient variability within dose levels, coefficient of variation” value ([1]; both studies, generally in the range) was 20%-40%, the AUC(0-inf) [1, 3] was 178 ng·h/mL and the Cmax [1, 3] was 121 ng/mL. It also gave a clearance [1, 3] of 2.05 mL/min/kg, a half-life [1, 3] of 0.7 h and an AUC(0-inf) [1, 4] of 188 ng·h/mL. The Cmax [1, 4] was 138 ng/mL, the clearance [1, 4] was 1.8 mL/min/kg and the half-life [1, 4] was 0.6 h. It also gave an AUC(0-inf) [1, 5] of 4390 ng·h/mL, a Cmax [1, 5] of 1920 ng/mL and a clearance [1, 5] of 0.817 mL/min/kg. The half-life [1, 5] was 1.3 h, the AUC(0-inf) [1, 6] was 3660 ng·h/mL and the Cmax [1, 6] was 2010 ng/mL. It also gave a clearance [1, 6] of 0.933 mL/min/kg, a half-life [1, 6] of 1.1 h and an AUC(0-inf) [1, 7] of 6480 ng·h/mL. For the same compound, the Cmax [1, 7] was 2890 ng/mL, the clearance [1, 7] was 0.633 mL/min/kg and the half-life [1, 7] was 2.5 h. The AUC(0-inf) [1, 8] was 5140 ng·h/mL, the Cmax [1, 8] was 2410 ng/mL and the clearance [1, 8] was 0.783 mL/min/kg. It also gave a half-life [1, 8] of 1.2 h, an AUC(0-inf) [1, 9] of 6340 ng·h/mL and a Cmax [1, 9] of 2730 ng/mL. For the same compound, the clearance [1, 9] was 0.983 mL/min/kg, the half-life [1, 9] was 1.4 h and the AUC(0-inf) [1, 10] was 7660 ng·h/mL. For the same compound, the Cmax [1, 10] was 3080 ng/mL, the clearance [1, 10] was 0.8 mL/min/kg and the half-life [1, 10] was 2.4 h. It also gave an AUC(0-inf) [1, 11] of 14300 ng·h/mL, a Cmax [1, 11] of 4920 ng/mL and a clearance [1, 11] of 0.617 mL/min/kg. It also gave a half-life [1, 11] of 2 h, an AUC(0-inf) [1, 12] of 12600 ng·h/mL and a Cmax [1, 12] of 4640 ng/mL. The clearance [1, 12] was 0.6 mL/min/kg, the half-life [1, 12] was 2.9 h and the AUC(0-inf) [1, 13] was 16500 ng·h/mL. The Cmax [1, 13] was 6080 ng/mL, the clearance [1, 13] was 0.667 mL/min/kg and the half-life [1, 13] was 3.2 h. The AUC(0-inf) [1, 14] was 20200 ng·h/mL, the Cmax [1, 14] was 7490 ng/mL and the clearance [1, 14] was 0.583 mL/min/kg. For the same compound, the half-life [1, 14] was 4 h, the clearance [1, 15] was 0.917 mL/min/kg and the half-life [1, 15] was 1.2 h. For the same compound, the clearance [1, 16] was 0.867 mL/min/kg, the half-life [1, 16] was 1.7 h and the half-life ([1]; in vivo, […]2, single agent, […]^2, Day 15, mean, N 3) was 1.6 h. The “differences in PK between day 1 and day 15 or between single-agent and combination administration” value ([1]; in vivo) was “No consistent differences”, the “dose range over which dose-proportionality of Cmax and AUC0-inf was observed” value ([1]; in vivo) was 40 fold and the Cl ([1]; single agent, 0.9 mg/m^2, Day 1, mean, N 4) was 5240 mL/h/m^2. For the same compound, the Cl ([1]; single agent, 0.9 mg/m^2, Day 15, mean, N 3) was 4908 mL/h/m^2, the Cl ([1]; single agent, 7.2 mg/m^2, Day 1, mean, N 3) was 1802 mL/h/m^2 and the Cl ([1]; single agent, 7.2 mg/m^2, Day 15, mean, N 3) was 2041 mL/h/m^2. The Cl ([1]; single agent, 9.57 mg/m^2, Day 1, mean, N 3) was 1599 mL/h/m^2, the Cl ([1]; single agent, 9.57 mg/m^2, Day 15, mean, N 2) was 1954 mL/h/m^2 and the Cl ([1]; single agent, 12.73 mg/m^2, Day 1, mean, N 3) was 2081 mL/h/m^2. For the same compound, the Cl ([1]; single agent, 12.73 mg/m^2, Day 15, mean, N 3) was 1677 mL/h/m^2, the Cl ([1]; single agent, 16.93 mg/m^2, Day 1, mean, N 2) was 1395 mL/h/m^2 and the Cl ([1]; single agent, 16.93 mg/m^2, Day 15, mean, N 3) was 1372 mL/h/m^2. The Cl ([1]; single agent, 22.5 mg/m^2, Day 1, mean, N 7) was 1458 mL/h/m^2, the Cl ([1]; single agent, 22.5 mg/m^2, Day 15, mean, N 5) was 1206 mL/h/m^2 and the Cl ([1]; single agent, […]^2, Day 1, mean, N 3) was 2197 mL/h/m^2. For the same compound, the Cl ([1]; single agent, […]^2, Day 1, mean, N 4) was 2908 mL/h/m^2, the “dose-proportionality of Cmax and AUC” value ([1]; single agent, days 1 and 15, over the dose range evaluated, acetate salt) was “showed dose-proportionality” and the “cytotoxicity of cisplatin on addition of CBP501” value (MSTO-211H cells) was “increased”. For the same compound, the “cytotoxicity of cisplatin on addition of CBP501” value (NCI-H226 cells) was “increased” and the “concentration of CBP501 in the subcutaneous tumor xenograft” value [2] was 1000 to 2000 nM.
